ChEMBL document CHEMBL6109078, “Pyrylium derivatives as outer membrane permeabilizers against MDR gram-negative bacteria via multi-target mode of action” (Eur J Med Chem, 2025)
The source made the active and inactive calls. The calls are words filed in the database; no cut-off is given here.

Columns and labels:
Escherichia coli [1] = experiment: Antibacterial activity against Escherichia coli ATCC 25922 infected in Galleria mellonella larvae assessed as survival rate of larvae at 50 microg/ml relative to control; type: functional
Escherichia coli [2] = experiment: Synergistic antibacterial activity against Escherichia coli ATCC 25922 infected in Galleria mellonella larvae assessed as survival rate of larvae at 50 microg/ml in presence of polymyxin B relative to control; type: functional
Acinetobacter baumannii [3] = experiment: Antibacterial activity against Acinetobacter baumannii ATCC 19606 infected in Galleria mellonella larvae assessed as survival rate of larvae at 50 microg/ml measured after 96 hrs relative to control; type: functional
Acinetobacter baumannii [4] = experiment: Synergistic antibacterial activity against Acinetobacter baumannii ATCC 19606 infected in Galleria mellonella larvae assessed as survival rate of larvae at 50 microg/ml measured after 96 hrs in presence of polymyxin B relative to control; type: functional
Cell membrane = experiment: Induction of outer membrane damage in Escherichia coli ATCC 25922 assessed as local damage at 12.5 microg/ml incubated for 1 hrs by TEM analysis; conditions: dose 12.5 µg/ml
Lipopolysaccharide (LPS) [5] = experiment: Binding affinity to LPS (unknown origin) by BLI analysis; conditions: dose 3.13-25 µg/ml
Lipopolysaccharide (LPS) [6] = experiment: Binding affinity to LPS (unknown origin) assessed as dissociation constant by BLI analysis
Lipopolysaccharide (LPS) [7] = experiment: Binding affinity to LPS (unknown origin) assessed as exothermic heat release at 100 mM by ITC analysis; conditions: time <= 40.0 min
Escherichia coli [8] = experiment: Antibacterial activity against Escherichia coli ATCC 25922 assessed as inhibition of bacterial growth by measuring fold increase in MIC incubated for 16 to 18 hrs in presence of Mg2+; type: functional; conditions: time 16-18 hrs
Bacteria [9] = experiment: Inhibition of His-tagged His-tagged LptA/LptC (unknown origin) protein-protein interaction extracted from Escherichia coli BL21 (DE3) cells by BLI analysis; conditions: dose 0.39-1.56 µg/ml
Bacteria [10] = experiment: Binding affinity to His-tagged LptC (unknown origin) extracted from Escherichia coli BL21 (DE3) cells by BLI analysis

| SMILES | survival at 50 µg/mL (Escherichia coli [1]) | survival at 50 µg/mL (Escherichia coli [2]) | survival at 50 µg/mL (Acinetobacter baumannii [3]) | survival at 50 µg/mL (Acinetobacter baumannii [4]) | Activity (Cell membrane) | Activity (Lipopolysaccharide (LPS) [5]) | Kd (Lipopolysaccharide (LPS) [6]) | Activity (Lipopolysaccharide (LPS) [7]) | fold change (FC) (Escherichia coli [8]) | inhibition (Bacteria [9]) | Activity (Bacteria [10]) |
| --- | --- | --- | --- | --- | --- | --- | --- | --- | --- | --- | --- |
| CCN(CC)c1ccc(/C=C/c2cc(C(C)(C)C)[o+]c(C(C)(C)C)c2)cc1.O=S(=O)([O-])C(F)(F)F | 20% | 70% | 10% | 80% | Active | Dose-dependent-effect | 4 µM | Time-dependent-effect | 2 | Dose-dependent-effect | – |
| CC(C)(C)c1cc(/C=C/c2ccc(N3CCCC3)cc2)cc(C(C)(C)C)[o+]1.O=S(=O)([O-])C(F)(F)F | – | – | – | – | Active | – | – | – | 2 | – | – |
| CN1CCOc2cc(/C=C/c3cc(C(C)(C)C)[o+]c(C(C)(C)C)c3)ccc21.O=S(=O)([O-])C(F)(F)F | – | – | – | – | – | – | – | – | – | – | inactive |
